Structures are written as SMILES. Peptide text beside a SMILES is read from it. * marks the point of attachment. Cbz = O=C(OCc1ccccc1)*

Data on two compounds can be found in US20250269018A1, “COMBINED CANCER THERAPY WITH AN EPITHELIAL CELL ADHESION MOLECULE (EPCAM) INHIBITOR AND A HEPATOCYTE GROWTH FACTOR RECEPTOR (HGFR) INHIBITOR” (ACADEMIA SINICA, priority 2021, published 2025).

Assay [1] has as its system GSK3β, active β-catenin and Snail. Put plainly: Western blotting of GSK3β, active β-catenin, Snail and EMT proteins in HCT116 cells. In kind it is cell-based, human. The method, then: FIGS. 4A to 4L. EpEX induces EMT and invasion by stabilizing β-catenin and Snail through decreasing GSK3β activity. (FIG. 4A) The protein expression of EMT markers and regulators was detected by Western blotting in Wild-type (WT) or EpCAM knockout (KO) HCT116 cells after EpEX treatment. (FIG. 4B) Cell invasion was examined by Transwell chamber assay with matrigel. (FIG. 4C) WT or KO HCT116 and HT29 cells were starved for 16 h, then treated with 0.5 nM of HGF with 2% FBS for 24 h. EMT-related protein expression (E-cadherin, vimentin, and Snail) was examined by Western blotting. (FIG. 4D) WT or KO HCT116 and HT29 cells were treated with HGF (0.5 nM) for 24 h. Invasion by HCT116 and HT29 cells was examined by Transwell chamber assay with matrigel. (FIG. 4E) HCT116 and HT29 cells were starved for 16 h, then treated with 0.5 nM of HGF with 2% FBS for 24 h. EMT-related protein expression (E-cadherin, Vimentin, and Snail) was examined by Western blotting. (FIG. 4F) HCT116 and HT29 cells were starved for 16 h, then treated with 0.5 nM of HGF with 2% FBS for 24 h. Cell invasion was assessed by a Transwell assay with matrigel. (FIG. 4G) HCT116 cells after shLuc and shHGFR treatment were treated with 50 nM of EpEX-His. HCT116 cells after shLuc and shHGFR treatment were treated with 50 nM of EpEX-His with 2% FBS for 24 h. EMT-related protein expression (E-cadherin, Vimentin, and Snail) was examined by Western blotting. (FIG. 4H) Cell invasion was examined by Transwell chamber assay with matrigel. (FIG. 4I) Starved HCT116 cells were treated SU (10 μM) for 1 h, followed by treatment with EpEX-His (50 nM) for 24 h. Phosphorylated GSK3β, active-β-catenin, and Snail were detected by Western blotting. (FIG. 4J) HCT116 cells were starved for 16 h, then treated with 50 nM EpEX-His for 24 min. AKT inhibitor LY294002 (25 μM), ERK inhibitor U0126 (20 μM), or PF-562271 (10 μM) were applied 1 h before EpEX treatment. Protein expression of phosphorylated GSK3β and Snail was examined by Western blotting. (FIG. 4K) HCT116 cells were starved for 16 h, then treated with 50 nM EpEX, and SU (10 μM), LY (25 μM), UO (20 μM) or PF (10 μM). Cell invasion was examined by Transwell chamber assay with matrigel. (FIG. 4L) Protein expression was analyzed by Western blotting in EpEX-His (50 nM) treated HCT116 cells after treatment with or without 2 μM GSK3β inhibitor (BIO) for 24 h. Quantification of the normalized protein expression in the right panel.
FIGS. 5A to 5I. EpEX promotes Snail protein stability through inhibition of ubiquitination-mediated proteasomal degradation. (FIG. 5A) The gene expression of EMT markers and regulators was detected by qRT-PCR in Wild-type (WT) or EpCAM knockout (KO) of HCT116 and HT29 cells. (FIG. 5B) Stability of Snail protein in WT or KO of HCT116 cells. Cells were treated with cyclohexamide (CHX) 100 μg/ml at the indicated intervals and subjected to Western blotting. (FIG. 5C) The protein expression of Snail was analyzed in WT or KO HCT116 cells by treating with or without […] MG132 (proteasome inhibitor) for 6 h, followed by Western blotting. (FIG. 5D) WT or KO HCT116 cells were treated with 10 μM MG132 for 6 h before cell collection. The lysates were subjected to immunoprecipitation using anti-Snail antibody and input. Western blotting was performed with the indicated antibodies to detect ubiquitinated Snail protein. (FIG. 5E) Stability of Snail protein in HCT116 cells after EpEX (50 nM) treatment for 24 h. Cells were treated with cyclohexamide (CHX; 100 μg/ml) for the indicated intervals and then subjected to Western blotting. (FIG. 5F) Expression of the gene encoding SNAIL was detected by qRT-PCR in HCT116 cells after EpEX (50 nM) treatment for 24 h. (FIG. 5G) The protein expression of Snail in HCT116 was analyzed cells by Western blotting after EpEX (50 nM) treatment for 24 h, and treatment with or without 10 μM MG132 (proteasome inhibitor) for 6 h. […]

The test system is the same in assay [2]. Described as above. Type of assay: cell-based, human. This is another data set of the same source.

For the compound `O=C1Nc2cc(Br)ccc2/C1=C1/Nc2ccccc2/C1=N\O` [BIO], in assay [1] (HCT116, control and EpEX-His (50 nM) treated, 2 μM BIO 24 h, FIG. 4L), the “active β-catenin and Snail protein expressions” value was “upregulated both in control and EpEX-treated cells”. Besides, the “active β-catenin and Snail proteins” value in assay [2] (EpAb2-6 and 2 μM BIO 24 h, FIG. 6H) was “increased”.
On to `CC(C)C[C@@H](C=O)NC(=O)[C@H](CC(C)C)NC(=O)[C@H](CC(C)C)NC(=O)OCc1ccccc1` [MG132] (Cbz-Leu-Leu-Leu-aldehyde), for which the “Snail steady-state protein levels” value in assay [1] (HCT116 with or without EpEX (50 nM, 24 h), 10 μM MG132 6 h, FIG. 5G) is recorded as “increased Snail steady-state protein levels”; in assay [1] (WT or EpCAM KO HCT116, for 6 h, FIG. 5C), “increased Snail steady-state protein levels”. Moreover, the “Active β-catenin and Snail steady-state protein levels” value in assay [2] (10 μM MG132 and EpAb2-6 for 6 h, FIG. 6I) was “increased active β-catenin and Snail steady-state protein levels”.
